From PMC12153776, “Synthesis and Preliminary Cytotoxicity Evaluation of 3-Lup-20(29)-Ene-3β,28-Diol Glycoconjugates Containing a Succinic Linker and a 1,2,3-Triazole Ring” (Cancers, 2025)

Experiments:
MCF-7 cell line = tested on: MCF-7 cell line; design: method as in PMID 33353244; conditions: previous study; cited from earlier work
healthy cells = tested on: healthy cells; design: method as in PMID 33353244; conditions: previous study; cited from earlier work
[1] = tested on: HCT 116 (colorectal carcinoma cell line); test: cells; assay type: cell-based, human; conditions: for IC50: Homo sapiens, MTT
Experimental: (§1) For biological studies three different cell lines were used: the NHDF-Neo cell line (Lonza, Poland), the HCT-116 cell line (American Type Culture Collection, ATCC, Manassas, VA, USA), and the MCF-7 cell line (purchased by the Maria Sklodowska-Curie Memorial Cancer Center and Institute of Oncology, Gliwice, Poland and gifted for our research). Cells were cultured in 96-well plates (Sarstedt, Nümbrecht, Germany) using RPMI 1640 or DMEM/F12 media (100 µL per well) supplemented with fetal bovine serum (FBS, EURx, Gdańsk, Poland), and with Antibiotic–Antimycotic Solution (Avantor, Gliwice, Poland). […] Stock solutions of the tested compounds were prepared in DMSO and stored under appropriate conditions. Immediately prior to the experiment, these solutions were diluted to the desired concentrations using a growth medium. In no dilution was the DMSO content higher than 1% v/v. The resulting solutions were then used to treat cells (100 µL per well). […] In parallel, the influence of copper ions on cellular proliferation was investigated. In this case, the procedure was analogous to the previously described one, with the difference that glycoconjugates were added in the culture medium with the addition of CuCl2. […] ACROS Organics) was applied following the manufacturer’s protocol. Absorbance of the formazan, formed during the test and dissolved in 100 µL of DMSO, was measured spectrophotometrically at 570 nm using a plate reader (Epoch, Bio-Tek, Winooski, VT, USA). The measured absorbance was analyzed to assess proliferation, where tested samples were compared with the untreated controls (100%). The results from MTT were presented as the mean of three experiments (biological replicates). For each experimental condition within a replicate, four technical repetitions were performed. Technical repetitions were averaged to obtain a single value per replicate. Statistical analyses were conducted using means of the biological replicates. The percentage of viable cells and the standard deviation (SD) were calculated in Excel (Microsoft Office 365, A3 for faculty), using the STDEV.S formula, which determines the standard deviation for a sample set. […] The results are expressed as the average value ± standard deviation (SD). To evaluate statistical significance, two-way analysis of variance (ANOVA) with replication was performed to assess the effects of compound type and concentration on cell proliferation. […] All statistical tests were performed in Excel. […] Two cancer cell lines were chosen for the study: HCT 116 (colorectal carcinoma cell line) and MCF-7 (human breast adenocarcinoma cell line). This selection was not random, as in both types of cancer cell lines overexpression of glucose and galactose transporters is observed. To determine if glycoconjugation enhanced the selectivity of the betulin derivatives, cytotoxicity tests on Normal Human Dermal Fibroblast-Neonatal cells (NHDF-Neo) were also conducted. […] The incubation time for individual cell lines varied from 24 to 72 h, due to differences in the doubling time of these cell lines.

[2] = tested on: MCF-7 (human breast adenocarcinoma cell line); test: MTT cytotoxicity assay, MCF-7 cells; assay type: cell-based; conditions: for IC50: Homo sapiens, MCF7, 72 h, MTT, incubation 72 h
Experimental: as §1, with “Poland). Cells were seeded and incubated for 24 h prior to treatment:” for “Poland).”, “proliferation. When significant main effects were observed (p < 0.05), pairwise comparisons between betulin (BN) and each analogue at corresponding concentrations were conducted using two-tailed unpaired t-tests.” for “proliferation.”, “conducted. The selection of this healthy cell line, so atypical in relation to the cancer cells tested, was based on the desire to compare the selectivity index determined for the currently obtained glycoconjugates with the results obtained for the betulin derivatives we described earlier and draw preliminary conclusions on structure-selectivity relationships.” for “conducted.”

[3] = tested on: Normal Human Dermal Fibroblast-Neonatal cells (NHDF-Neo); test: MTT cytotoxicity assay, healthy NHDF-Neo cells; assay type: cell-based; conditions: 24 h, incubation 24 h
Experimental: as §1

[4] = HCT-116, 24 h, incubation 24 h, no copper added
[5] = HCT-116, 48 h, incubation 48 h, addition of CuCl2 at 20 µM
[6] = HCT-116, 48 h, incubation 48 h, no copper added

SMILES	in vitro activity against the MCF-7 cell line (MCF-7 cell line)	toxicity against healthy cells (healthy cells)	IC50 [1, 4] [µM]	IC50 [1, 5] [µM]	IC50 [1, 6] [µM]	IC50 ([2]; addition of CuCl2 at 20 µM) [µM]	IC50 ([2]; no copper added) [µM]	SI MCF-7 (ratio of IC50 of NHDF-Neo to IC50 of cancer cells) ([2]; addition of CuCl2 at 20 µM)	SI MCF-7 (ratio of IC50 of NHDF-Neo to IC50 of cancer cells) ([2]; no copper added)	IC50 ([3]; addition of CuCl2 at 20 µM) [µM]	IC50 ([3]; no copper added) [µM]	SI HCT 116 (ratio of IC50 of NHDF-Neo to IC50 of cancer cells) ([1]; addition of CuCl2 at 20 µM)
C=C(C)C1CCC2(COC(=O)Cn3cc(CO)nn3)CCC3(C)C(CCC4C5(C)CCC(OC(=O)Cn6cc(CO)nn6)C(C)(C)C5CCC43C)C12 (stereo not drawn) [3,28-O,O’-bis(2-(4-(hydroxymethyl-1H-1,2,3-triazol-1-yl)acetyl)betulin]	unexpectedly high in vitro activity	showed toxicity against healthy cells										
C=C(C)[C@@H]1CC[C@]2(COC(=O)CCC(=O)OCc3cn(CCO[C@@H]4O[C@H](COC(C)=O)[C@@H](OC(C)=O)[C@H](OC(C)=O)[C@H]4OC(C)=O)nn3)CC[C@]3(C)C(CCC4[C@@]5(C)CC[C@H](O)C(C)(C)C5CC[C@]43C)C12 (stereo partly drawn) [7c]			> 200	> 200	> 200	118 ± 1.42	135 ± 7.92	>1.7	>1.5	> 200	> 200	
C=C(C)[C@@H]1CC[C@]2(COC(=O)CCC(=O)OCc3cn(CCCO[C@@H]4O[C@H](COC(C)=O)[C@@H](OC(C)=O)[C@H](OC(C)=O)[C@H]4OC(C)=O)nn3)CC[C@]3(C)C(CCC4[C@@]5(C)CC[C@H](OC(C)=O)C(C)(C)C5CC[C@]43C)C12 (stereo partly drawn) [7b]			> 200	112.5 ± 0.57	> 200	124 ± 1.64	152 ± 2.91	>1.6	>1.3	> 200	> 200	>1.8
